Here are results for six compounds from patent US10604493B2, “Compositions, methods of use, and methods of treatment” (priority 2012, dated 2020).

One may read the Ki as a measure of affinity in units of concentration, obtained from inhibition or displacement. High values mean a looser hold on the target, low ones a stronger hold on the target. What is called Km is the concentration of substrate that gives half-maximal velocity.

One data set concerns the target CTX-M-9 (Escherichia coli, UniProt Q9L5C8). Briefly: biochemical. The conditions noted are these: for LipE (defined as log Ki-c log P): from Ki against CTX-M-9 and c log P. The source says: To investigate the effectiveness of the new analogs, we employed CTX-M-9 and a UV-absorbance based biochemical assay to obtain binding affinities. […] The parameter LipE (defined as log Ki-c log P)^24 provides a measure of binding affinity improvement achieved while retaining favorable physiochemical properties.
The compounds were synthesized as previously described or purchased from the company Chembridge, and assayed without further purification. The highest concentrations at which the compounds were tested were up to 1-3 mM (depending on their solubility) in IC50 experiment. The reaction was initiated by adding protein to the reaction buffer last.

The test system of data set [1] is O=C(Cc1cccs1)N[C@@H]1C(=O)N2C(C(=O)O)=C(/C=C/c3ccc([N+](=O)[O-])cc3[N+](=O)[O-])CS[C@H]12. Put plainly: purified protein, by the assay type. The settings on record: other: substrate, 100 mM Tris-HCl pH 7.0, 0.01% Triton X-100.

For the compound `O=C(Nc1cccc(-c2nnn[nH]2)c1)c1cccc(F)c1` [Compound 1], the “LipE (defined as log Ki-c log P)” value at CTX-M-9 is on record as 1.37.

In the case of `CC(=O)c1cccc(C(=O)Nc2cccc(-c3nnn[nH]3)c2)c1` [Compound 7, 3-Acetyl-N-[3-(1H-tetrazol-5-yl)-phenyl]-benzamide], the “LipE (defined as log Ki-c log P)” value at CTX-M-9 stood at 2.51.

`N#Cc1cccc(C(=O)Nc2cccc(-c3nnn[nH]3)c2)c1` [Compound 14, 3-Cyano-N-[3-(1H-tetrazol-5-yl)-phenyl]-benzamide] returned a Ki at CTX-M-9 of 7.2 µM.

Turning to `O=C(Nc1cccc(-c2nnn[nH]2)c1)c1cc(C(F)(F)F)cc2nc[nH]c12` [Compound 19, 6-Trifluoromethyl-3H-benzoimidazole-4-carboxylic acid [3-(1H-tetrazol-5-yl)-phenyl]-amide], on CTX-M-9, the affinity, expressed as Ki, was 0.089 µM and the “LipE (defined as log Ki-c log P)” value is reported as 3.86. The “ligand efficiency (L.E.)” value at CTX-M-9 (from Ki against CTX-M-9) is on record as 0.36.

In the case of `O=C(Nc1cccc(-c2nnn[nH]2)c1)c1cc(F)cc2nc[nH]c12` [Compound 23, 6-Fluoro-3H-benzoimidazole-4-carboxylic acid [3-(1H-tetrazol-5-yl)-phenyl]-amide], at CTX-M-9 (CTX-M-9), the “potency (Ki) relative to comparator compound, in words” value was “only equipotent to des-fluoro comparator 16”.

In the case of CTX-M-9 (Escherichia coli), in data set [1], the Michaelis-Menten constant (Km) amounted to 24 µM.
